ChEMBL document CHEMBL1137751, “Molecular hybridization, synthesis, and biological evaluation of novel chroman I(Kr) and I(Ks) dual blockers” (Bioorg Med Chem Lett, 2009)
The source made the active and inactive calls. No cut-off for these calls is given here.

Key:
[1] = molecular target: T1, Voltage-gated inwardly rectifying potassium channel KCNH2 (Cavia porcellus, UniProt O08703); test: Inhibition of ERG in guinea pig ventricular myocytes assessed as blockade of rapid delayed rectifier potassium current by whole cell patch-clamp technique
T1 sequence (O08703 whole entry): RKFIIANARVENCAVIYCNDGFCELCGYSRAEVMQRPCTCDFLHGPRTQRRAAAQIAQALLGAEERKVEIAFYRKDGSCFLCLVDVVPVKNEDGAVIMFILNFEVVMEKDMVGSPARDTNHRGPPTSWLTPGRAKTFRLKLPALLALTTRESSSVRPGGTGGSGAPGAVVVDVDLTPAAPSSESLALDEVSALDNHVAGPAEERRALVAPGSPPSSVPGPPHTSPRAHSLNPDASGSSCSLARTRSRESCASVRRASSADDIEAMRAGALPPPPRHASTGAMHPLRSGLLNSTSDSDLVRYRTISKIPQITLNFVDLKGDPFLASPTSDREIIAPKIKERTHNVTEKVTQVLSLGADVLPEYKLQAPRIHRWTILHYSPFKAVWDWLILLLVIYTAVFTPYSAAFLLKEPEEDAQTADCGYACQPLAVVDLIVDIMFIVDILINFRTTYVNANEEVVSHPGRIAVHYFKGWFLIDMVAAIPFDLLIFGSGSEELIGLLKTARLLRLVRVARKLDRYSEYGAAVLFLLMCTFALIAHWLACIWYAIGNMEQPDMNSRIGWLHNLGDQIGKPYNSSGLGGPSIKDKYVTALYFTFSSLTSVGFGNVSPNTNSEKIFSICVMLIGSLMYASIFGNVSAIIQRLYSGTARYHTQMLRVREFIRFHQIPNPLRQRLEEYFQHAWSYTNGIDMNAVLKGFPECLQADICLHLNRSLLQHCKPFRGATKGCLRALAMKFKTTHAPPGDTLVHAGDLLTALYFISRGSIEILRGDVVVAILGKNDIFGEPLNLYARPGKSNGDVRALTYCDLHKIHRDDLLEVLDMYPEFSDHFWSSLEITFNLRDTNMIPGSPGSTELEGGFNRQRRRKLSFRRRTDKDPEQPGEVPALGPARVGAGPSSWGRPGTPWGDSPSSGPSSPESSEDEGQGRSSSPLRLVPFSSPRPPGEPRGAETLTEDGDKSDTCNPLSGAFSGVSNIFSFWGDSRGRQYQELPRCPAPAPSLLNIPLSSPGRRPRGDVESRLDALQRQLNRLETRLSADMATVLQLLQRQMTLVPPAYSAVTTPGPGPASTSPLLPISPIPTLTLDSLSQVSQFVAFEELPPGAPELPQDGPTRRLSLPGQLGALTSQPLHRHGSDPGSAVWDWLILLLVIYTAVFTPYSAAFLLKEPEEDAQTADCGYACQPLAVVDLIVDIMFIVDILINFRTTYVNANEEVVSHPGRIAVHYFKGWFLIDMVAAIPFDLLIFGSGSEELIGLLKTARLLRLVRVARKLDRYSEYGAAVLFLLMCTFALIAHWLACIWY

[2] = molecular target: T2, Potassium voltage-gated channel subfamily KQT member 1 (Cavia porcellus, UniProt O70344); test: Inhibition of KVLQT1/minK in guinea pig ventricular myocytes assessed as blockade of slow delayed rectifier potassium current by whole cell patch-clamp technique; assay type: cell-based, Ventricular myocyte
T2 sequence (O70344 whole entry): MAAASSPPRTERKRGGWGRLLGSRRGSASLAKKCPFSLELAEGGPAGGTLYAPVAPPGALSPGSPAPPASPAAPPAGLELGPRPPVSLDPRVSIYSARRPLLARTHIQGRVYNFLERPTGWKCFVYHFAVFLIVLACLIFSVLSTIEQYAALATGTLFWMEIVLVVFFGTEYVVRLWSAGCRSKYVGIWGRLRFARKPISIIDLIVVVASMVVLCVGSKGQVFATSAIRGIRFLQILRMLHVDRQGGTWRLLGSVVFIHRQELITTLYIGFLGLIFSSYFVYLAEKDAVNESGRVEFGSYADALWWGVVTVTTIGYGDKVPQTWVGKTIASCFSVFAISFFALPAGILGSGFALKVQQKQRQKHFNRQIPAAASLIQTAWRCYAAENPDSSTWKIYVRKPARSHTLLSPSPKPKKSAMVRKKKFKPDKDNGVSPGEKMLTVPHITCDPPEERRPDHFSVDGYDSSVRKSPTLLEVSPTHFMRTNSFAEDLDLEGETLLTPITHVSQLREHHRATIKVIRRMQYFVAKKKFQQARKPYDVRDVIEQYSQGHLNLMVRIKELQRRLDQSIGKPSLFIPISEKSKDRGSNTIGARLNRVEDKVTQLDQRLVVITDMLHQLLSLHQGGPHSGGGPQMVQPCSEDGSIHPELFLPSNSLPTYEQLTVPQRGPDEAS

Heart [3] = test: Cardioprotective effect in isolated langendorff ischemia-reperfused Sprague-Dawley rat heart assessed as duration of QT intervals at 1 uM after 20 mins; assay type: functional
Heart [4] = test: Antiarrhythmic activity in langendorff ischemia-reperfused Sprague-Dawley rat heart assessed as cardiac protection at 1 uM; assay type: functional, tissue-based
Heart [5] = test: Cardioprotective effect in isolated langendorff ischemia-reperfused Sprague-Dawley rat heart assessed as duration of QTc intervals at 1 uM after 20 mins; assay type: functional
Heart [6] = test: Cardioprotective effect in isolated langendorff ischemia-reperfused Sprague-Dawley rat heart assessed as reduction of heart rate at 1 uM after 20 mins by RR interval ECG signal; assay type: functional; set-up: scale not given: the % may be the effect or the level left
Heart [7] = test: Cardioprotective effect in isolated langendorff ischemia-reperfused Sprague-Dawley rat heart assessed as reduction of heart rate at 3 uM after 20 mins by RR interval ECG signal; assay type: functional
Heart [8] = test: Cardioprotective effect in isolated langendorff ischemia-reperfused Sprague-Dawley rat heart assessed as duration of QTc intervals at 3 uM after 20 mins; assay type: functional
Heart [9] = test: AUC in isolated langendorff ischemia-reperfused Sprague-Dawley rat heart at 1 uM; assay type: ADME, tissue-based
Heart [10] = test: Cardioprotective effect in isolated langendorff ischemia-reperfused Sprague-Dawley rat heart assessed as reduction of heart rate at 0.3 uM after 20 mins by RR interval ECG signal; assay type: functional
Heart [11] = test: Cardioprotective effect in isolated langendorff ischemia-reperfused Sprague-Dawley rat heart assessed as duration of QT intervals at 3 uM after 20 mins; assay type: functional
Heart [12] = test: Cardioprotective effect in isolated langendorff ischemia-reperfused Sprague-Dawley rat heart assessed as duration of QTc intervals at 0.3 uM after 20 mins; assay type: functional
Heart [13] = test: Antiarrhythmic activity in langendorff ischemia-reperfused Sprague-Dawley rat heart assessed as cardiac protection at 3 uM; assay type: functional, tissue-based
Heart [14] = test: Cardioprotective effect in isolated langendorff ischemia-reperfused Sprague-Dawley rat heart assessed as duration of QT intervals at 0.3 uM after 20 mins; assay type: functional

Row | IC50 [2] [µM] | Structure (SMILES) | IC50 [1] [µM] | Activity (Heart [3]) [%] | Activity (Heart [4]) | Activity (Heart [5]) | Activity (Heart [6]) [%] | other results
1 | > 10 | CCOc1ccc2c(c1)/C(=N/N1CC(=O)N(CCCCN3CCN(C)CC3)C1=O)CCO2 | 6.15 |  |  |  |  | 
2 | > 100 | Cc1ccc2c(c1)/C(=N/N1CC(=O)N(CCCCN3CCN(C)CC3)C1=O)CCO2 | > 10 |  |  |  |  | 

More lines, now with the values behind:

Row | Structure (SMILES) | IC50 [2] [µM] | IC50 [1] [µM] | Activity (Heart [3]) [%] | Activity (Heart [4]) | Activity (Heart [5]) | Activity (Heart [6]) [%] | other results
3 | CN1CCN(CCCCN2C(=O)CN(/N=C3\CCOc4ccc(O)cc43)C2=O)CC1 | 60 | > 100 |  |  |  |  | 
4 | O=C1CN(/N=C2\CCOc3ccc(O)cc32)C(=O)N1CCCCN1CCCCC1 | 5.4 | > 10 |  |  |  |  | 
5 | CCCCc1oc2ccccc2c1C(=O)c1cc(I)c(OCCN(CC)CC)c(I)c1 [AMIODARONE] |  |  | 12 | Active | 13% | 17 | 
6 | CN1CCN(CCCN2C(=O)CN(/N=C3\CCOc4ccc(Cl)cc43)C2=O)CC1 | 0.0058 | 3.87 |  |  |  |  | 
7 | CCCOc1ccc2c(c1)/C(=N/N1CC(=O)N(CCCN3CCN(C)CC3)C1=O)CCO2 |  |  | 13 | Active | 2% | 18 | Activity (Heart [7]): 179 bpm; Activity (Heart [8]): 400.9 ms/s1/2; Activity (Heart [9]): Dose-dependent effect; Activity (Heart [10]): 198 bpm; Activity (Heart [11]): 248 ms; Activity (Heart [12]): 326.1 ms/s1/2; Activity (Heart [13]): Active; Activity (Heart [14]): 186.7 ms
8 | CN1CCN(CCCCN2C(=O)CN(/N=C/c3ccc(-c4ccc(Cl)cc4)o3)C2=O)CC1 [AZIMILIDE] | 0.24 | 0.18 | 8 | Active | 316.7 ms/s1/2 | 12 | 
